Legend:
[1] = Size and zeta potential of the antidotes (Zetasizer Nano ZS), particle concentration; assay type: physicochemical
Description: Synthesis of CLIO and CLIO NWs: CLIO NWs were synthesized from native 20 kDa dextran (Sigma) whereas CLIO were synthesized from reduced T-10 (10 k Da) dextran (Pharmacosmos). Dextran, Fe (III) chloride and Fe (II) chloride were mixed in DDW and titrated with ammonia using a modified Molday precipitation method. The ratio between dextran and iron salts determined the final size of the nanoparticles. Excess dextran was removed with ultrafiltration and the particles were crosslinked with epichlorohydrin as described. Excess epichlorohydrin was removed with ultrafiltration and particles were aminated by addition of ammonium hydroxide (CLIO NWs) or diaminohexane (CLIO) overnight at 4° C. […] Size and zeta potential were determined using Zetasizer Nano ZS (Malvern Instruments Ltd, Malvern, UK). […] The amino group content was determined by reaction with Cy7-NHS. […] The amount of the reacted dye was determined by the difference in the supernatant fluorescence between the reaction tube and control tube (no particles). The number of amines per nanoparticle was determined to be ˜100,000 per CLIO and CLIO NW.
BSA-TCO size and zeta potential are similar to those of native BSA values reported in literature. Particle concentration of BSA was determined based on Mw of 67 kDa; CLIO and CLIONW concentration was determined as described before. […]

[2] = Elimination profile and organ distribution of NIR-labeled antidotes after i.v. injection; assay type: in vivo; conditions: female BALB/c mice
Description: FIGS. 1A-1F show the antidotes used in the study. […] The nanocarriers were modified with click groups (DSPE-PEG3400 with MTZ, BSA with TCO, CLIO NW and CLIO with TCO) as described in Methods. […] Crosslinked dextran shell is not visible. Size bar=50 nm. FIGS. 1C-1F show the elimination profile of the antidotes and organ distribution (NIR images). Labels are as follows: k-kidney, s-spleen, Iv-liver, i-intestine, lu-lung, h-heart). DSPE-PEG-MTZ, BSA-TCO and CLIO NW-TCO are long circulating particles, whereas CLIO-TCO are short circulating particles. […] N=3 mice per group.
Female BALB/c mice 6-8 weeks old were used for the experiments and bred in house. In order to determine circulation half-life of NIR-labeled antibodies and antidotes, 2 μL blood were collected at different time points through retroorbital vein or mandibular vein and were applied in duplicates on a 0.22 μm nitrocellulose membrane and scanned at 800 nm using Li-COR Odyssey. The spot integrated density of a 16-bit TIFF image was measured with ImageJ and plotted as a function of time. The fluorescence of dots at initial time point was used as 100%. […] Mean fluorescence was determined from 16-bit images using ImageJ software by subtracting the background, drawing a ROI around the organs, and using a measure function to determine mean gray value. […]

IRDye 800CW-labeled IgG [3] = assay: In vivo depletion of blood IgG by click-modified antidotes; design: species or system BALB/c mice
Description: Blood IgG levels were measured at different time points, up to 72 h post injection. […] Black line is “IgG only”, green line is “IgG+antidote”. Time of IgG injection is “0” on the X-axis. The antidotes were injected at different times after IgG injection as marked by red arrows. First blood draw was at 1 h post-IgG injection (100%). The IgG only (control) group was included in every experiment. […] Two tailed t-test, n=3 mice per group.
Female BALB/c mice 6-8 weeks old were used for the experiments and bred in house. In order to determine circulation half-life of NIR-labeled antibodies and antidotes, 2 μL blood were collected at different time points through retroorbital vein or mandibular vein and were applied in duplicates on a 0.22 μm nitrocellulose membrane and scanned at 800 nm using Li-COR Odyssey. The spot integrated density of a 16-bit TIFF image was measured with ImageJ and plotted as a function of time. The fluorescence of dots at initial time point was used as 100%. For organ distribution, mice were euthanized at 48-72 h post injection and the organs were placed in wells on a 12-well plate. Organs were scanned with Li-COR Odyssey at 800 nm. Mean fluorescence was determined from 16-bit images using ImageJ software by subtracting the background, drawing a ROI around the organs, and using a measure function to determine mean gray value.
In order to test the depletion efficiency of the antidotes, female BALB/c mice were injected with 25 μg IRDye 800CW-labeled IgG followed by PBS (control) or the antidote, and the levels of IgG in blood (both antidote-bound and free) were measured at different times post-IgG injection (FIG. 2A). […] To test the ability of DSPE-PEG-MTZ to decrease total blood levels of IgG (both antidote bound and free), mice were injected with IRDye 800CW-IgG-TCO followed 1.5 h later with the lipid (1 mg, 1660-fold molar excess of MTZ groups). […] To test the depletion efficiency of BSA-TCO, we injected mice with 25 μg of IgG-MTZ followed by BSA-TCO at 2 h and 3 h post-IgG injection (500 μg each; ˜400 fold excess of TCO; 92-fold excess of surface-binding capacity). […] In view of the large excess of the injected lipid and BSA over IgG, it is unlikely that insufficient binding capacity is responsible for the observed difference in the depletion efficiency of these antidotes. To further investigate which factors contribute to the depletion efficiency, CLIO-TCO and CLIO NW-TCO were compared that have similar sizes but different blood half-lives (FIGS. 2E, 2F). […] It was also confirmed that CLIO-TCO specifically binds to IgG via click chemistry (FIG. 11B), which confirms that the observed decrease in IgG blood fluorescence was due to depletion.

IRDye 800CW-labeled IgG [4] = assay: Organ distribution of IgG fluorescence in control and antidote-injected groups; assay type: in vivo, BALB/c mice; conditions: 48-72 h after antidote injection
Description: Graphs show mean gray value of fluorescence scans, images show colored images in 800 nm channel. Organs were scanned in […]; each organ's image corresponds to the bar graph below; representative images are shown. The signal represents both circulating IgG and organ-deposited IgG. Brightness and contrast were adjusted to the same extent in control and treated groups of the same experiment. Due to scanner settings, antibody batch and time when the experiment was terminated, the grey values show differences between experiments. 2-way ANOVA test with multiple comparisons, n=3 mice per group. Means and SD of experimental replicates are shown
Female BALB/c mice 6-8 weeks old were used for the experiments and bred in house. […] The spot integrated density of a 16-bit TIFF image was measured with ImageJ and plotted as a function of time. The fluorescence of dots at initial time point was used as 100%. […] Mean fluorescence was determined from 16-bit images using ImageJ software by subtracting the background, drawing a ROI around the organs, and using a measure function to determine mean gray value.
To study the depletion in the peripheral organs, the main organs were scanned 48-72 h after the antidote injection with Li-COR Odyssey NIR scanner. The mean fluorescence reflects both the deposited IgG and the circulating IgG (either free or antidote-bound). […]

In the case of “BSA-TCO: bovine serum albumin conjugated with TCO-PEG4-NHS ester; macromolecule-based click antidote”, the Particles per mg ([1]; BSA based on Mw of 67 kDa) is reported as 9 × 10^12 per mg, the Diameter ([1]; hydrodynamic diameter, intensity-weighted distribution) is reported as 8 nm and the “Organ accumulation of the antidote” value ([2]; NIR organ images) is reported as “significant accumulation in the lungs”. The “Elimination half-life (slow phase)” value ([2]; i.v., blood) was 4 h, the “Decrease in blood level of IgG at 3 h post-IgG injection vs control” value (IRDye 800CW-labeled IgG [3]; 25 μg IgG-MTZ, BSA-TCO 500 μg at 2 h and 3 h, CLIO-TCO 290 μg at 1 h) was 40% and the “Decrease in blood level of IgG at 24 h post IgG injection vs control” value (IRDye 800CW-labeled IgG [3]; 25 μg IgG, DSPE-PEG-MTZ 1 mg, BSA-TCO 2 x 500 μg, CLIO-TCO 290 μg) was 53%. For the same substance, the “Decrease in AUC24 h of blood IgG vs control, 3 injections of antidote” value (IRDye 800CW-labeled IgG [3]; BSA-TCO 500 μg at 1.5, 3, 23 h, CLIO-TCO 150 μg at 2, 3, 4 h post-IgG) was 38%, the “Decrease in AUC24 h of blood IgG vs control” value (IRDye 800CW-labeled IgG [3]; DSPE-PEG-MTZ 1 injection 1 mg, BSA-TCO 2 injections 500 μg each, CLIO-TCO 1 injection 290 μg) was 41% and the “Effect on IgG fluorescence in the liver” value (IRDye 800CW-labeled IgG [4]) was “increased the liver fluorescence”. For the same substance, the “Effect on IgG fluorescence in the organs” value (IRDye 800CW-labeled IgG [4]; Li-COR 800 nm) was “did not decrease the level of fluorescence in other organs”.

Reference: US20200179296A1, “Accelerated Clearance of Biologic Therapeutics Using Click-Antidotes” (The Regents of the University of Colorado, a body corporate, priority 2018, published 2020)
